Blank lines part the entries; values can stand above or below the compound they belong to.
Columns and labels:
[1] = biological target: T1, TarH (TarGH nucleotide binding domain) (Staphylococcus aureus, UniProt Q2FJ01); assay: malachite green ATPase assay of purified TarGH (Michaelis-Menten); format: biochemical
T1 construct: gene tagH; full-length TarH (residues 1–264) in TarG2H2 heterotetramer; with TarG (A0A0H2XIF1)

[2] = biological target: T1, TarH (TarGH nucleotide binding domain); assay: cryo-EM structure at […] Å
[3] = biological target: T2, TarG (TarGH WTA transporter, transmembrane domain) (Staphylococcus aureus, UniProt A0A0H2XIF1); assay: cryo-EM structures ([…] Å with AMP-PNP; […] Å with ATPγS), MST; IC50 from malachite green ATPase assay of purified TarGH; format: biochemical
T2 construct: gene tagG; full-length TarG with N-terminal His tag, co-expressed with TarH (residues 1–264) as TarG2H2 heterotetramer; with TarH (Q2FJ01)

Compound: Nc1ncnc2c1ncn2[C@@H]1O[C@H](COP(=O)(O)OP(=O)(O)OP(=O)(O)O)[C@@H](O)[C@H]1O [ATP]
- malachite green ATPase assay of purified TarGH (Michaelis-Menten) [1]: ~ 70 mol Pi/min mol protein

Compound: Nc1ncnc2c1ncn2[C@@H]1O[C@H](CO[P@](=O)(O)O[P@](=O)(O)O[P@@](=O)(O)S)[C@@H](O)[C@H]1O [ATPγS]
- cryo-EM structure at 2.3 Å [2]: ATPγS is well resolved at the TarH dimer interface, forming characteristic interactions with the ABC motifs

- IC50 [3]: 6.5 ± 1.2 µM
Compound: Cc1c(CC(=O)N2CCC[C@H]2C(=O)O)c(=O)oc2c(C)c3occ(-c4ccc(Cl)cc4)c3cc12 [targocil-II]
